Experimental data from patent US20080299186A1, “COATINGS FOR APPLYING SUBSTANCES ONTO SUBSTRATE CARRIER” (Schering-Plough Healthcare Products, Inc., priority 2007, published 2008).
Structures can show the parent of a compound that is named as a salt.

Test: Phenylephrine HCl stability study: chemical compatibility with film forming polymers and plasticizers, HPLC degradation products
Assay type: physicochemical
Description: Methods: Chemical compatibility of Phenylephrine HCl with various film forming polymers or polymer blends and plasticizers (Table 2) was conducted. […] Two additional formulations (C and F) were used as controls. Sample C contained Phenylephrine HCl dissolved in water without any additional cellulosic or non-cellulosic polymers. Sample F comprised phenylephrine HCl in the absence of water. Both controls were subjected to the same drying conditions as the other example films prior to analysis.
Aliquots from the bulk coating dispersion equivalent to approximately 10 unit doses of the active were poured into flat, 4-6″ plastic weight boats and allowed to dry overnight for approximately 15-16 hours at 40C under vacuum. The amount per film equivalent to 10 unit doses was chosen for achieving reproducible and reliable analytical results for the Phenylephrine HCl degradants. […] These dried film samples were then stored at 50C in closed amber jars for 14 days. Each film was then analyzed by HPLC for the presence of degradation products. Separation of Phenylephrine HCl degradation products was accomplished on an HPLC using a Prontosil EPS C18, 100×4.6 mm (3 μparticle size) column manufactured by Bischoff Chromatography and using a gradient test method. Detection was by UV at 215 nm. The column was thermostated at 25° C. and an injection volume of 10 μL of sample solution was used. […]

residual water after drying (after drying of the film sample) | total PE degradation, result in words (compared with controls) (stored at 50C in closed amber jars for 14 days) | SMILES
10-15% |  | CNC[C@H](O)c1cccc(O)c1 [C, Phenylephrine HCl]
 | no appreciable degradation occurred | CNC[C@H](O)c1cccc(O)c1 [F, Phenylephrine HCl]
